From patent US10155756B2, “Pyrazolo[1,5-A]pyridine compounds and use thereof” (GUANGZHOU INSTITUTES OF BIOMEDICINE AND HEALTH, CHINESE …, priority 2014, dated 2018) come the findings set out here.

By bioavailability is commonly meant the share of a dose that reaches the circulation, judged against a reference dose that is usually intravenous. What is called AUC(0-inf) is total exposure, with the tail of the curve extrapolated. Low values mean low exposure, high ones high exposure. One may read the Cmax as the maximum level reached in the sampled fluid or tissue. By Tmax is commonly meant the time from dosing to the highest level.

For data set [1], the system named is Mycobacterium tuberculosis standard strain H37Rv. The data set is described as follows: MIC of Mycobacterium tuberculosis by a plate method. The note with it: 7H11 plates, 37° C. for 4 weeks, colony count.
Data set [2] deals with mycobacterium tuberculosis self-luminescent bacteria H37Ra. Particulars: for spleen anti-tuberculosis activity compared with the positive control Rifampicin: in vivo.
Data set [3] has as its system self-luminescent tuberculosis. Description: microbe, parasite or virus in culture. The format is cell-based.
The test system of data set [4] is clinical sorted MDR-TB P103. Description: microbe, parasite or virus in culture. It counts as cell-based. Particulars: Mycobacterium tuberculosis, MDRTBP103.
The test system of data set [5] is Mycobacterium tuberculosis standard strain H37Rv. Description: Plate MIC of Example 53, standard strain H37Rv. The format is cell-based.
Data set [6] has as its system clinical sorted MDR-TB P105. The data set is described as follows: microbe, parasite or virus in culture. Particulars: Mycobacterium tuberculosis, MDRTBP105. The format is cell-based.
The test system of data set [7] is clinical sorted MDR-TB P91. The data set is described as follows: microbe, parasite or virus in culture. It counts as cell-based. The note with it: Mycobacterium tuberculosis, MDRTBP91.
A short description of another data set: in vivo. Also noted: species or system SD rats. Particulars: rat; for bioavailability / AUC(0-inf) / Cmax / T^1/2 / Tmax: SD. As for the experimental part: Example 55: Pharmacokinetic Studies of Compounds TJ170298 and TJ170385
1. Administration and Sample Collection a. Rat intravenous administration: SD rats 3, weight 180˜220 g. Fasting 12 h before administration, a small amount of food was allowed during the experiment, and water was free. The compounds TJ170298 and TJ170385 were administered intravenously at a dose of 2 mg/kg. The rats were respectively taken 0.3 mL orbital blood at 2 min, 10 min, 30 min, 1.0 h, 2.0 h, 3.0 h, 4.0 h, 6.0 h, 8.0 h, 12.0 h, 21 h, 24.0 h, 30 h, 36 h, 48 h, 60 h, 72 h after administration, which was then placed in heparinized test tube, centrifuged 10 min at 6000 rpm, and plasma was separated, preserved at 4° C. to be measured. […]
b. Rat oral administration: SD rats 3, weight 180˜220 g. Fasting for 12 h before administration, a small amount of food was allowed during the experiment, and water was free. The compounds TJ170298 and TJ170385 were orally administered at a dose of 10 mg/kg, respectively. The rats were respectively taken 0.3 mL orbital blood at 2 min, 10 min, 30 min, 1.0 h, 2.0 h, 3.0 h, 4.0 h, 6.0 h, 8.0 h, 12.0 h, 21 h, 24.0 h, 30 h, 36 h, 48 h, 60 h, 72 h after administration, which was then placed in heparinized test tube, centrifuged 10 min at 6000 rpm, and plasma was separated, preserved at 4° C. to be measured.
2. Determination of Plasma Samples a. Plasma Sample Treatment
150 μl of the internal standard solution ([…], acetonitrile solution) was added to 50 μL of the above plasma sample, mixed well; after eddy mixing for 2 min, centrifuge for 30 min (13000 rpm, 4° C.), supernatant was taken to another centriguge tube, and 20 μL of which was taken for LC/MS/MS analysis. […]
b. Preparation of Standard Curve
50 μL of rat blank plasma was taken, to which 10 μL of compound standard series solution was added to prepare compound plasma samples equivalent to plasma concentration of 20, 50, 100, 500, 1000, 2000, 4000, 6000, 12000, 40000 ng/mL. According to “plasma sample treatment” item, the standard curve was established. The concentration (X) of an analyte is as the abscissa, the peak area ratio (y) of the analyte and the internal standard is as the ordinate, and the regression is performed by the weighted (W=1/x2) least squares method to obtain the linear regression Equation, that is, the standard curve.
C. Data Processing and Analysis
The pharmacokinetic parameters of rats after administration were calculated by DAS 2.0 software.

[8] abbreviates: Mycobacterium tuberculosis, 72 h; read-out: MIClux.
Setting [9] is: Mycobacterium tuberculosis, 72 h, read-out: MIClux.

Values after ≈ are worked out from the molar mass of the structure shown. Structures can show the parent of a compound that is named as a salt. Where two headings read alike, the source gives them in different places.

With `NNC(=O)c1ccncc1` [isoniazid, reference compound], the MIC result in data set [1] is given as “<=0.1 μg/mL”.
As for `Cc1nn2ccc(Cl)cc2c1C(=O)NCc1ccc(N2CCC(c3ccc(OC(F)(F)F)cc3)CC2)cc1` [TJ170372, 5-chloro-2-methyl-N-(4-(4-(4-(trifluoromethoxy)phenyl)piperidine-1-yl)benzyl) pyrazolo [1,5-a] pyridine-3-carboxamide], in data set [2], the “in vivo anti-tuberculosis activity (luminous values within live mice)” value was “obvious in vivo anti-tuberculosis activity”, the “in vivo anti-tuberculosis activity compared with the positive control Rifampicin” value was “equal to or better than that of the positive control Rifampicin” and the “spleen anti-tuberculosis activity compared with the positive control Rifampicin” value is listed as “bad than that of the positive control Rifampicin”. Further, the MIC in data set [3] (setting [8]) is less than 1 µg/mL. Also, the MIC in data set [1] came out at 0.01 µg/mL.
Consider `CCc1nn2ccc(Cl)cc2c1C(=O)NCc1ccc(C(F)(F)F)cc1` [TJ170322], for which the MIC in data set [3] (setting [8]) was less than 1 µg/mL; in data set [1], 0.1 µg/mL.
As to `CCc1nn2ccc(Cl)cc2c1C(=O)NCc1ccc(N2CCC(c3ccc(OC(F)(F)F)cc3)CC2)cc1` [TJ170298, 5-chloro-2-ethyl-N-(4-(4-(4-(trifluoromethoxy)phenyl)piperidine-1-yl)benzyl) pyrazolo [1,5-a]pyridine-3-carboxamide], the “in vivo anti-tuberculosis activity (luminous values within live mice)” value in data set [2] is recorded as “obvious in vivo anti-tuberculosis activity”. Besides, the “in vivo anti-tuberculosis activity compared with the positive control Rifampicin” value in data set [2] is “equal to or better than that of the positive control Rifampicin”. Also, the “spleen anti-tuberculosis activity compared with the positive control Rifampicin” value in data set [2] is given as “bad than that of the positive control Rifampicin”. For the same compound, the MIC in data set [4] was less than 0.075 µg/mL; in data set [5], 0.012 µg/mL; in data set [6], 0.15 µg/mL (≈ 0.269 µM); in data set [3] (setting [9]), less than 1 µg/mL; in data set [7], less than 0.075 µg/mL. Further, the “pharmacokinetic properties (in words)” value in the data set “in vivo” is “good pharmacokinetic properties”.
`Cc1ccn2nc(C)c(C(=O)NCc3ccc(N4CCC(c5ccc(OC(F)(F)F)cc5)CC4)cc3)c2c1` [TJ170385, 2,5-dimethyl-N-(4-(4-(4-(trifluoromethoxy)phenyl)piperidine-1-yl)benzyl) pyrazolo [1,5-a] pyridine-3-carboxamide]: in data set [2], the “in vivo anti-tuberculosis activity (luminous values within live mice)” value is listed as “obvious in vivo anti-tuberculosis activity”, the “in vivo anti-tuberculosis activity compared with the positive control Rifampicin” value is given as “equal to or better than that of the positive control Rifampicin” and the “spleen anti-tuberculosis activity compared with the positive control Rifampicin” value is “bad than that of the positive control Rifampicin”. In addition, the MIC in data set [3] (setting [9]) was less than 1 µg/mL. Also, in “in vivo”, the bioavailability was 94.5% and the “pharmacokinetic properties (in words)” value is on record as “good pharmacokinetic properties”. Moreover, in “in vivo” (iv, 2 mg/kg), the area under the curve AUC(0-inf) stood at 2030 ng·h/mL, the Cmax was found to be 1040 ng/mL and the “T^1/2” value is 10.933 h. Moreover, in the data set “in vivo” (po, 10 mg/kg), the area under the curve AUC(0-inf) stood at 9590 ng·h/mL, the highest level (Cmax) was 644 ng/mL, the “T^1/2” value is 27.374 h and the time to peak (Tmax) was determined as 2 h. Also, in data set [1], the MIC came to 0.01 µg/mL.
As to `O=C(NCc1ccc(N2CCC(c3ccc(OC(F)(F)F)cc3)CC2)cc1)c1c(C2CC2)nn2ccc(Cl)cc12` [TJ170375, 5-chloro-2-cyclopropyl-N-(4-(4-(4-(trifluoromethoxy)phenyl)piperidine-1-substituted)benzyl) pyrazolo [1,5-a] pyridine-3-carboxamide], the MIC in data set [3] (setting [8]) is less than 1 µg/mL; in data set [1], 0.1 µg/mL.
`CCc1nn2ccc(Cl)cc2c1C(=O)NCc1ccc(N2CCC(c3ccc(OC(F)(F)F)cc3)CC2)cc1` [TJ170298 (hydrochloride), 5-chloro-2-ethyl-N-(4-(4-(4-(trifluoromethoxy)phenyl)piperidine-1-yl)benzyl) pyrazolo [1,5-a]pyridine-3-carboxamide] displayed a bioavailability in “in vivo” of 24.1%. In “in vivo” (iv, 2 mg/kg), the AUC(0-inf) is 3900 ng·h/mL, the highest concentration (Cmax) was determined as 1550 ng/mL, the “T^1/2” value is given as 19.975 h and the Tmax was determined as 0.033 h. Besides, in “in vivo” (po, 10 mg/kg), the AUC(0-inf) came out at 4700 ng·h/mL, the peak concentration (Cmax) was 509 ng/mL, the “T^1/2” value worked out at 19.699 h and the Tmax came out at 2 h.
Consider `Cc1nn2ccccc2c1C(=O)NCc1ccc(N2CCC(c3ccc(OC(F)(F)F)cc3)CC2)cc1` [TJ170381, 2-methyl-N-(4-(4-(4-(trifluoromethoxy)phenyl)piperidine-1-yl)benzyl) pyrazolo [1,5-a] pyridine-3-carboxamide], for which the MIC in data set [3] (setting [9]) was less than 1 µg/mL; in data set [1], 0.1 µg/mL.
With `CO[C@H]1/C=C/O[C@@]2(C)Oc3c(C)c(O)c4c(O)c(c(/C=N/N5CCN(C)CC5)c(O)c4c3C2=O)NC(=O)/C(C)=C\C=C\[C@H](C)[C@H](O)[C@@H](C)[C@@H](O)[C@@H](C)[C@H](OC(C)=O)[C@@H]1C` [RIF, rifampicin, reference compound], the values for the MIC in data set [4], in data set [6] and in data set [7] were greater than 10 µg/mL, greater than 10 µg/mL and 1 to 10 µg/mL (≈ 1.22 to 12.2 µM), respectively.
